Biological target: T1, KATP channels (Homo sapiens, UniProt O60706)
T1 construct: TE671 human medulloblastoma cells were obtained from ATCC; host or cells: TE671 human medulloblastoma cells
Assay: Potassium Channel Assay (FLIPR membrane potential, TE671 cells)
Type: cell-based
Settings: 30 μM test compound; TE671 human medulloblastoma cells; FLIPR Membrane Potential Assay Dye; room temperature
Method: TE671 human medulloblastoma cells were obtained from ATCC and grown in Dulbecco's modified Eagle's medium (DMEM) supplemented with 10% fetal bovine serum, 100 U/ml penicillin and 100 U/ml streptomycine.
The day before testing, the cells were plated in black 96-well plates at 50 K/well. On the day of testing, the growth media was removed, then 100 μl of FLIPR buffer (20 mM 4-(2-hydroxyethyl)-1-piperizine ethane sulfonic acid (HEPES), 120 mM NaCl, 2 mM KCl, 2 mM CaCl2, 1 mM MgCl2, 5 mM Glucose) and 100 μl of Membrane Potential Assay Dye (Molecular Devices) dissolved in FLIPR buffer were added to each well. The cells were incubated at room temperature for 15 to 30 min.
The effect of test compounds on KATP channels were evaluated on a fluorometric imaging plate reader (FLIPR, Molecular Devices) at room temperature. After a baseline period, 50 μl of 5× stock solution of test compound prepared in FLIPR buffer was added and fluorescent change was monitored for 3 minutes. After this reading, glyburide, a KATP channel blocker, was added to a final concentration of 5 μM to check the specificity of the test compound as a KATP channel openers. Hyperpolarization resulting from KATP channel opening was observed as a decrease in fluorescent intensity.
Representative compounds of the present invention were tested according to the procedure described above, with results as listed in Table 2 below.

T1 sequence (O60706 1-1549 isoform O60706-2): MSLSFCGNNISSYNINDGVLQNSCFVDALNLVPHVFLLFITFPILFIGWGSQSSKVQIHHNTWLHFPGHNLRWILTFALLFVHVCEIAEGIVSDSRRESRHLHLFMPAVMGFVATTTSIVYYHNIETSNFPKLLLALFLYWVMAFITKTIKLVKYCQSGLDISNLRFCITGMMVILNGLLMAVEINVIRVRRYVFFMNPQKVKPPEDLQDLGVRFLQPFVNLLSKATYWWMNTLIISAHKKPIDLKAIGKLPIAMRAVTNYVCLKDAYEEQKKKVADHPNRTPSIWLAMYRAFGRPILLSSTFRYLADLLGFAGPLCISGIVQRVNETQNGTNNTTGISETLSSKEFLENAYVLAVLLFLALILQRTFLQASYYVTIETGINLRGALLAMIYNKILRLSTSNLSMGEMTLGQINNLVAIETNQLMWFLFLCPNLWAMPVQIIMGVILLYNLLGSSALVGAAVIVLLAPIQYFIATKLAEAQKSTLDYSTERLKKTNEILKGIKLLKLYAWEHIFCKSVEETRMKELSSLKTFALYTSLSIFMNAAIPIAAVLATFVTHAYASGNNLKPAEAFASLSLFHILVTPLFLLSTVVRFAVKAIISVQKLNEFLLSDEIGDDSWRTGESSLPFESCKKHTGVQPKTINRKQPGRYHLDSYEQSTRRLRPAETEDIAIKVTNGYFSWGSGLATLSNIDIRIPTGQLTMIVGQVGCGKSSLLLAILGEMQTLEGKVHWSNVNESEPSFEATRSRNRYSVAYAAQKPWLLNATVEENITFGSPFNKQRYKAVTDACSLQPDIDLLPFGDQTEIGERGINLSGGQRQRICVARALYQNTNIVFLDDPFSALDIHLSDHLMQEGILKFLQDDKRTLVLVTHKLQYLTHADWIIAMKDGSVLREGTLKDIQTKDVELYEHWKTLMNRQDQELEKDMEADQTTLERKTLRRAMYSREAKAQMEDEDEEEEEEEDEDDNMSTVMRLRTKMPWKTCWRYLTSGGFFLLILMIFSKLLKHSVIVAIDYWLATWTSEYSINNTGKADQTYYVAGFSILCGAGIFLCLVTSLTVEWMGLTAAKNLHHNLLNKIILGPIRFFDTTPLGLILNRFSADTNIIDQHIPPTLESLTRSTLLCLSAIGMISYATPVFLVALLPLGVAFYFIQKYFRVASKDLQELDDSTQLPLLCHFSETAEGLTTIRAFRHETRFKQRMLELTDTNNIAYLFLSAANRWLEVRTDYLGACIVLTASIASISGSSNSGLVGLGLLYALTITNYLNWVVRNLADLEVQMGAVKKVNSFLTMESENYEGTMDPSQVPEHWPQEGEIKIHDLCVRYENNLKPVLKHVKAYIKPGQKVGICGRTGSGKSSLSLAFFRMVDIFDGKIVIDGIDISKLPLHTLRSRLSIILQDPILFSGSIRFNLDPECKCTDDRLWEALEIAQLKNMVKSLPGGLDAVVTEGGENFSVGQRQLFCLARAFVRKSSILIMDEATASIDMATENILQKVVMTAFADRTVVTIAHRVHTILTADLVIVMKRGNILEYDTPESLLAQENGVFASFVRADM
T1 sequence (Q14654 whole entry partner): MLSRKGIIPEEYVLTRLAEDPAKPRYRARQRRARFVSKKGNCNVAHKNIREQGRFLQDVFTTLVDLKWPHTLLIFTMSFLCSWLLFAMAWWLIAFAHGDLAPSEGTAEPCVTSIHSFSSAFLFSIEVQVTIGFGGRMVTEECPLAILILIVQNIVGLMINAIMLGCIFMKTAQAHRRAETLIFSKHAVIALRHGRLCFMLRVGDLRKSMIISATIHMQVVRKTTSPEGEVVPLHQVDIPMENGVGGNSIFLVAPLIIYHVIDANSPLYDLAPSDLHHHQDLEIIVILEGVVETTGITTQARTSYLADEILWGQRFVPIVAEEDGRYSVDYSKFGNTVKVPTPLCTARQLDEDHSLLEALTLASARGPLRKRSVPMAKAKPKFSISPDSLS

SMILES | % Stimulation @ 30 μM
Cc1cc(Cl)cc(Cl)c1CNc1c(NC2CCCC23CCCO3)c(=O)c1=O (centres unmarked) [Compound 3, 3-[[(2,4-dichloro-6-methylphenyl)methyl]amino]-4-(1-oxaspiro[4.4]non-6-ylamino)-3-cyclobutene-1,2-dione] | 49%
CCc1cc(C#N)ccc1Nc1c(NC2CCCC23CCCO3)c(=O)c1=O (centres unmarked) [Compound 1, 3-ethyl-4-[[2-(1-oxaspiro[4.4]non-6-ylamino)-3,4-dioxo-1-cyclobutene-1-yl]amino]-benzonitrile] | 94%
